We go through 19 molecules from patent US20230312529A1, “PYRIMIDINE SMALL-MOLECULE COMPOUND AND APPLICATION THEREOF” (WENZHOU MEDICAL UNIVERSITY, priority 2021, published 2023).

What all share (assay): Caliper Mobility Shift kinase inhibition test
Holding throughout (type): biochemical

In one assay the target is ABL1 (Homo sapiens (Human), UniProt P00519). The conditions noted are these: 100 nM; for inhibition at 0.1 µM: read-out: inhibitory rate on ABL1. The procedure: The method adopted in the test was Caliper Mobility Shift Assay, which was a detection platform based on the mobility detection technology of microfluidic chip technology. […] Collected data was tested on Caliper to yield that inhibition ratio to kinase activity=(max−conversion)/(max−min)×100. “max” was DMSO control without adding compound, and “min” was low control. When IC50 was determined, each sample was provided with 10 dilutions, each with 2 multiple holes, and repeated for 3 times.

The target of a further assay is PDGFRβ (Homo sapiens (Human), UniProt P09619). The conditions noted are these: for inhibition at 0.1 µM / inhibitory rate on PDGFR-β: 100 nM; for inhibition at 0.1 µM: read-out: inhibitory rate on PDGFR-β; for IC50: read-out: IC50 PDGFR-β. The method, then: (§1) The method adopted in the test was Caliper Mobility Shift Assay, which was a detection platform based on the mobility detection technology of microfluidic chip technology. Test steps: 1.25× kinase reaction buffer (62.5 mmol/L HEPES, pH 7.5; 0.001875% Brij-35; 12.5 mmol/L MgCl2; 2.5 mM DTT) and kinase reaction stop solution (100 mmol/L HEPES, pH 7.5; 0.015% Brij-35; 0.2% Coating Reagent #3) were configured. […] Collected data was tested on Caliper to yield that inhibition ratio to kinase activity=(max−conversion)/(max−min)×100. “max” was DMSO control without adding compound, and “min” was low control. When IC50 was determined, each sample was provided with 10 dilutions, each with 2 multiple holes, and repeated for 3 times.
According to the above-mentioned method for measuring kinase inhibitory activity, the inhibitory activity of the active compounds on other multiple kinases was measured to characterize the kinase selectivity of active inhibitors.

The target of a further assay is FLT3 (Homo sapiens (Human), UniProt P36888). The note with it: 100 nM; for inhibition at 0.1 µM: read-out: inhibitory rate on FLT3. The procedure: as §1
Sequence of FLT3 (P36888 27-993): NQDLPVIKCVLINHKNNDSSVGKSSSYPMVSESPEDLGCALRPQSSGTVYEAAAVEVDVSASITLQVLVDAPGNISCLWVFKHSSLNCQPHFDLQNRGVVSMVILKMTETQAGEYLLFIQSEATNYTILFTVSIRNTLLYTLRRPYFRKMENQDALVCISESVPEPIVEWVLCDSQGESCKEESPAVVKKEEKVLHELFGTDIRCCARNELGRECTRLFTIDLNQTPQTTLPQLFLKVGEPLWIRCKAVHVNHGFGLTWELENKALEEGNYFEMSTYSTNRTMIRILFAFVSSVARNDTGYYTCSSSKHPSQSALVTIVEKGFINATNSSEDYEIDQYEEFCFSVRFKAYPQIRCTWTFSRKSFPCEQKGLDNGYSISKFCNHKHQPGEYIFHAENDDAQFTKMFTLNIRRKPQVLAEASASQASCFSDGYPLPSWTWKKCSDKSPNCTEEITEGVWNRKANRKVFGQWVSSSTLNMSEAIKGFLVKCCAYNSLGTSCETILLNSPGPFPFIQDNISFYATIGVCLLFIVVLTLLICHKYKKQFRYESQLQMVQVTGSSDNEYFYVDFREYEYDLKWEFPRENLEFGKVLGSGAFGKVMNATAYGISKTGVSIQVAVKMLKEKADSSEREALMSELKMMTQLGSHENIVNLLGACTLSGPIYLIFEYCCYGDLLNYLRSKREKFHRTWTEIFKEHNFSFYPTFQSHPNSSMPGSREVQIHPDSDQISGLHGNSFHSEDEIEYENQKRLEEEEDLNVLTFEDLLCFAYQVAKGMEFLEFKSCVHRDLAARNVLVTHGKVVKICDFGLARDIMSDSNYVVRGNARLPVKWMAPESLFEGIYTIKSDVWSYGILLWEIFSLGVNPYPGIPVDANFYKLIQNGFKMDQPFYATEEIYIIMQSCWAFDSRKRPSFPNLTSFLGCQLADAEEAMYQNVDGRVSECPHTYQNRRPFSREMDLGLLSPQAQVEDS

Sequence of ABL1 (P00519 whole entry): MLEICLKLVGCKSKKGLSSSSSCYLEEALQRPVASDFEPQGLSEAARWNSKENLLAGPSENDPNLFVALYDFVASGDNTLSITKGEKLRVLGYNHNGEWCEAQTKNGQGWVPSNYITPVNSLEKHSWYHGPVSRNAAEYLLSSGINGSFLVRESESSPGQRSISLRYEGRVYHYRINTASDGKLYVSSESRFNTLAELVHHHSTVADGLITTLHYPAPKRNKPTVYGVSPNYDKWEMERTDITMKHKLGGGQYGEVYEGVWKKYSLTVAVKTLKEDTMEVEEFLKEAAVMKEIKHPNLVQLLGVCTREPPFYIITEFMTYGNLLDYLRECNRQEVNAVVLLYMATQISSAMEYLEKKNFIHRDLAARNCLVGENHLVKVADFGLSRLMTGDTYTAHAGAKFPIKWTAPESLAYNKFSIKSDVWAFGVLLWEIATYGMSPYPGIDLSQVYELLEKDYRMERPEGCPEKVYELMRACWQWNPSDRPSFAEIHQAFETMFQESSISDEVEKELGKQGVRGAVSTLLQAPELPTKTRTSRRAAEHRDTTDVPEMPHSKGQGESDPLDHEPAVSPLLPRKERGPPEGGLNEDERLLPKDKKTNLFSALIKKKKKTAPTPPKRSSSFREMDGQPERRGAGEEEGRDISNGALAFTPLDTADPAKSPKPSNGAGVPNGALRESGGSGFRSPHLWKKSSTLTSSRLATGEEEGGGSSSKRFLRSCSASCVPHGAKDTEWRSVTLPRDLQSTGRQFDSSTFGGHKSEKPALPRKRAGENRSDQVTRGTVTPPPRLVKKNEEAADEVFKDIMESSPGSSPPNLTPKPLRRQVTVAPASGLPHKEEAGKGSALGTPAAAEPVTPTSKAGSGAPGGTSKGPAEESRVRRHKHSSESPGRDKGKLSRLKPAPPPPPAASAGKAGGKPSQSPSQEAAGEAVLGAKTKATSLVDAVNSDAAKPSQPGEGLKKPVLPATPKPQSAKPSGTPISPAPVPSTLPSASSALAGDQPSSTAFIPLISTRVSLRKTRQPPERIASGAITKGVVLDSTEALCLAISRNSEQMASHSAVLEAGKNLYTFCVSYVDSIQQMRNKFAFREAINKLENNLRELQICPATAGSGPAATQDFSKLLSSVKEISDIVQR
Sequence of PDGFRβ (P09619 33-1106): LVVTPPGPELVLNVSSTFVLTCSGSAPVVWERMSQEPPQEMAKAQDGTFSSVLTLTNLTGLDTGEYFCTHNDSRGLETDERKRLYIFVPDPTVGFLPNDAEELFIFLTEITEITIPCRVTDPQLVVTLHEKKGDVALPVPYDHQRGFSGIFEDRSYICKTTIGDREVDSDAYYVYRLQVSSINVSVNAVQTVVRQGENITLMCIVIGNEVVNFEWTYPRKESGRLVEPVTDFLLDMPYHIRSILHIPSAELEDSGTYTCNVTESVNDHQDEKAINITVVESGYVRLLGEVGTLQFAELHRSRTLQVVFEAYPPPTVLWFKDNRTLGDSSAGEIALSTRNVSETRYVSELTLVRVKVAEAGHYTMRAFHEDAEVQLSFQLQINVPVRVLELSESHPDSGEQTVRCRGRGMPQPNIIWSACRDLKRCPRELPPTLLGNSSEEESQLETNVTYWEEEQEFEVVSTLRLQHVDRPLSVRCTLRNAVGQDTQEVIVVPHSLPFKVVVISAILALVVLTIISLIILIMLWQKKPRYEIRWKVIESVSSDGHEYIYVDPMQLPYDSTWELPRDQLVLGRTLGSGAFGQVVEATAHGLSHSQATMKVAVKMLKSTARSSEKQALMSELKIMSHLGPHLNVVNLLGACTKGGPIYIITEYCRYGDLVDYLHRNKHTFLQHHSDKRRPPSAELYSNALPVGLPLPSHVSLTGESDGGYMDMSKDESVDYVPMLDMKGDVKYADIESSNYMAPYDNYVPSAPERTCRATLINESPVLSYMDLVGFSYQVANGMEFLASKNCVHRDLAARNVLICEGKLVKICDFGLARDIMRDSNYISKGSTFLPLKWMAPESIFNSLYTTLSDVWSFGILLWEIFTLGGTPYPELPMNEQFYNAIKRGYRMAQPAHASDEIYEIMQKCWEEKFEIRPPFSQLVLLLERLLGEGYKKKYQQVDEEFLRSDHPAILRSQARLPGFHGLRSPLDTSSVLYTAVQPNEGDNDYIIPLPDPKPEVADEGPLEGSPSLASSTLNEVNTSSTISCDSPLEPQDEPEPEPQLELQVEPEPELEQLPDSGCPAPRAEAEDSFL

Turning to `CN1CCN(c2ccc(Nc3ncc(F)c(Nc4ccc5cn[nH]c5c4)n3)cc2)CC1` [Compound 3a, 5-fluoro-N^4-(1H-indazol-6-yl)-N^2-(4-(4-methylpiperazine-1-yl)phenyl)pyrimidine-2,4-diamine], the inhibition at 0.1 µM was 90.4% on ABL1, 94.4% on PDGFRβ and 87.5% at FLT3.
For `CN1CCN(c2ccc(Nc3ncc(Cl)c(Nc4ccc5cn[nH]c5c4)n3)cc2)CC1` [Compound 3b, 5-chloro-N^4-(1H-indazol-6-yl)-N^2-(4-(4-methylpiperazine-1-yl)phenyl)pyrimidine-2,4-diamine], in that order: 95.1%, 95.8% and 90.2%.
In the case of `CN1CCN(c2ccc(Nc3ncc(C(F)(F)F)c(Nc4ccc5cn[nH]c5c4)n3)cc2)CC1` [Compound 3c, N^4-(1H-indazol-6-yl)-N^2-(4-(4-methylpiperazine-1-yl)phenyl)-5-(trifluoromethyl)pyrimidine-2,4-diamine], the results for the inhibition at 0.1 µM at ABL1, on PDGFRβ and at FLT3 were 84.2%, 81% and 78.6%, respectively.
For `Cc1cnc(Nc2ccc(N3CCN(C)CC3)cc2)nc1Nc1ccc2cn[nH]c2c1` [Compound 3d, N^4-(1H-indazol-6-yl)-5-methyl-N^2-(4-(4-methylpiperazine-1-yl)phenyl)pyrimidine-2,4-diamine], in that order: 95.2%, 99.6% and 90.5%.
On to `COc1cnc(Nc2ccc(N3CCN(C)CC3)cc2)nc1Nc1ccc2cn[nH]c2c1` [Compound 3e, N^4-(1H-indazol-6-yl)-5-methoxy-N^2-(4-(4-methylpiperazine-1-yl)phenyl)pyrimidine-2,4-diamine], for which the results for the inhibition at 0.1 µM on ABL1, at PDGFRβ and at FLT3 were 54.3%, 55% and 51.2%, respectively.
With `CCOC(=O)c1cnc(Nc2ccc(N3CCN(C)CC3)cc2)nc1Nc1ccc2cn[nH]c2c1` [Compound 3f, Ethyl-4-((1H-indazol-6-yl)amino)-2-((4-(4-methylpiperazine-1-yl)phenyl)amino)pyrimidine-5-carboxylate], the figures for the inhibition at 0.1 µM at ABL1, on PDGFRβ and on FLT3 were 4.3%, 3.5% and 34.8%, respectively.
With `CN1CCN(c2ccc(Nc3nc(Nc4ccc5cn[nH]c5c4)cc(C(F)(F)F)n3)cc2)CC1` [Compound 3g, N^4-(1H-indazol-6-yl)-N^2-(4-(4-methylpiperazine-1-yl)phenyl)-6-(trifluoromethyl)pyrimidine-2,4-diamine], the figures for the inhibition at 0.1 µM on ABL1, at PDGFRβ and at FLT3 were 6.9%, 7.2% and 14.6%, respectively.
Consider `Cc1cc(Nc2ccc3cn[nH]c3c2)nc(Nc2ccc(N3CCN(C)CC3)cc2)n1` [Compound 3h], for which, at ABL1, the “inhibitory rate on ABL1” value was 5.9%. Besides, the “inhibitory rate on PDGFR-β” value at PDGFRβ was 21.2%. The “inhibitory rate on FLT3” value at FLT3 was 13.8%.
On the same counts, the results for `Cc1cnc(Nc2ccc(N3CCN(C)CC3)cc2)nc1Nc1cccc2[nH]ccc12` [Compound 5b] are 78.8%, 90.3% and 60.9%.
As to `Cc1cnc(Nc2ccc(N3CCN(C)CC3)cc2)nc1Nc1ccc2c(cnn2C)c1` [Compound 5c, 5-methyl-N^4-(1-methyl-1H-indazol-5-yl)-N^2-(4-(4-methylpiperazine-1-yl)phenyl)pyrimidine-2,4-diamine], the inhibition at 0.1 µM on ABL1 was determined as 58.9%; at PDGFRβ, 79.2%; at FLT3, 65.4%.
Turning to `Cc1cnc(Nc2ccc(N3CCN(C)CC3)cc2)nc1Nc1ccc2[nH]ncc2c1` [Compound 5d], at ABL1, the “inhibitory rate on ABL1” value turned out to be 80.9%. In addition, the “inhibitory rate on PDGFR-β” value on PDGFRβ is recorded as 84.1%. Besides, the “inhibitory rate on FLT3” value on FLT3 was 80.4%.
For `Cc1cnc(Nc2ccc(N3CCN(C)CC3)cc2)nc1Nc1ccc2nccnc2c1` [Compound 5e, 5-methyl-N^2-(4-(4-methylpiperazine-1-yl)phenyl)-N^4-(benzopyrazine-6-yl)-pyrimidine-2,4-diamine], the “inhibitory rate on ABL1” value on ABL1 is 65.5%. Further, the inhibition at 0.1 µM at PDGFRβ worked out at 74.1%. Moreover, the “inhibitory rate on FLT3” value on FLT3 is reported as 69.8%.
Take `Cc1cnc(Nc2ccc(N3CCN(C)CC3)cc2)nc1Nc1ccc2nccnc2c1` [Compound 5f, 5-methyl-N^2-(4-(4-methylpiperazine-1-yl)phenyl)-N^4-(quinoxaline-7-yl)-pyrimidine-2,4-diamine]: the “inhibitory rate on ABL1” value on ABL1 was 90.2%. Moreover, the “inhibitory rate on PDGFR-β” value on PDGFRβ was 91.0%. Further, the “inhibitory rate on FLT3” value on FLT3 is 90.5%.
For the molecule `Cc1cnc(Nc2ccc(N3CCN(C)CC3)cc2)nc1Nc1ccc2c(c1)CCCC2` [Compound 5g, 5-methyl-N^2-(4-(4-methylpiperazine-1-yl)phenyl)-N^4-(5,6,7,8-tetrahydronaphthalene-2-yl)-pyrimidine-2,4-diamine], the inhibition at 0.1 µM worked out at 89.2% at ABL1, 90.4% at PDGFRβ and 85.7% on FLT3.
On to `Cc1cnc(Nc2ccc(N3CCN(C)CC3)cc2)nc1Nc1ccc2c(c1)CCC2` [Compound 5h, N^4-(2,3-dihydro-1H-indene-5-yl)-5-methyl-N^2-(4-(4-methylpiperazine-1-yl)phenyl)pyrimidine-2,4-diamine], for which the inhibition at 0.1 µM came to 80.2% on ABL1, 88.9% at PDGFRβ and 87.1% at FLT3.
One may read the IC50 as the concentration at which inhibition is half-maximal. As for `Cc1cnc(Nc2ccc(N3CCN(C)CC3)cc2)nc1Nc1ccc2c(C)n[nH]c2c1` [Compound 5i, 5-methyl-N^4-(3-methyl-1H-indazol-6-yl)-N^2-(4-(4-methylpiperazine-1-yl)phenyl)pyrimidine-2,4-diamine], the inhibition at 0.1 µM at ABL1 was 85.2%; on PDGFRβ, 98%; at FLT3, 93.4%. The IC50 on PDGFRβ is 7.9 nM.
As for `Cc1cnc(Nc2ccc(N3CCN(C)CC3)cc2)nc1Nc1ccc2cn(CCNC(=O)OC(C)(C)C)nc2c1` [Compound 5j, Tert-butyl (2-(6-((5-methyl-2-((4-(4-methylpiperazine-1-yl)phenyl)amino)-pyrimidine-4-yl)amino)-2H-indazol-2-yl)ethyl) carbamate], the “inhibitory rate on ABL1” value on ABL1 stood at 71.6%. In addition, the “inhibitory rate on PDGFR-β” value on PDGFRβ is 71.1%. Moreover, the “inhibitory rate on FLT3” value on FLT3 was found to be 74.3%.
For the molecule `Cc1cnc(Nc2ccc(N3CCOCC3)cc2)nc1Nc1ccc2cn[nH]c2c1` [Compound 6a, N^4-(1H-indazol-6-yl)-5-methyl-N^2-(4-morphinophenyl) pyrimidine-2,4-diamine], the “inhibitory rate on ABL1” value at ABL1 is 98.2%. At PDGFRβ, the “inhibitory rate on PDGFR-β” value is listed as 93.8% and the IC50 came out at 4.2 nM. In addition, the “inhibitory rate on FLT3” value on FLT3 was 87.2%.
Turning to `Cc1cnc(Nc2ccc(N3CCNCC3)cc2)nc1Nc1ccc2cn[nH]c2c1` [Compound 6b, N^4-(1H-indazol-6-yl)-5-methyl-N^2-(4-(piperazine-1-yl)phenyl) py rimidine-2,4-diamine], the inhibition at 0.1 µM on ABL1 amounted to 91.2%; at PDGFRβ, 68.7%; on FLT3, 87.3%. For the same molecule, the IC50 on PDGFRβ turned out to be 68.7 nM.
